Here are results for four molecules from patent EP0151939A2, “Pyrimidinediones and dihydroxypyrimidines, and process for the preparation of pyrimidinedones and dihydroxypyrimidines” (BAYER AG, priority 1984, dated 1985).

Holding throughout (type): in vivo
The test system of experiment [1] is Hirse. Briefly: Pre-emergence test. To be noted: 2 kg/ha, rated after three weeks. An excerpt:
(§1) Losungsmittel: 5 Gewichtsteile Aceton Emulgator: 1 Gewichtsteil Alkylarylpolyglykolether
(§2) Zur Herstellung einer zweckmäßigen Wirkstoffzubereitung vermischt man 1 Gewichtsteil Wirkstoff mit der angegebenen Menge Lösungsmittel, gibt die angegebene Menge Emulgator zu und verdünnt das Konzentrat mit Wasser auf die gewünschte Konzentration.
(§3) Samen der Testpflanzen werden in normalen Boden ausgesät und nach 24 Stunden mit der Wirkstoffzubereitung begossen. Dabei hält man die Wassermenge pro Flächeneinheit zweckmäßigerweise konstant. Die Wirkstoffkonzentration in der Zubereitung spielt keine Rolle, entscheidend ist nur die Aufwandmenge des Wirkstoffs pro Flächeneinheit. Nach drei Wochen wird der Schädigungsgrad der Pflanzen bonitiert.

Experiment [2] concerns Hafer. Briefly: Pre-emergence test. To be noted: 2 kg/ha, rated after three weeks.
From the text: as §1, §2, §3

Experiment [3] concerns Senf. Description: Pre-emergence test. Particulars: 2 kg/ha, rated after three weeks.
From the text: as §1, §2, §3

Experiment [4] has as its system Mais. Description: Pre-emergence test. To be noted: 2 kg/ha, rated after three weeks.
From the text: as §1, §2, §3

The subject of experiment [5] is Weizen. Briefly: Pre-emergence test. Particulars: 2 kg/ha, rated after three weeks.
From the text: as §1, §2, §3

The test system of experiment [6] is Rüben. Briefly: Post-emergence test. Particulars: 1 kg/ha, rated after three weeks. From the text:
(§4) Lösungsmittel: 5 Gewichtsteile Aceton Emulgator: 1 Gewichtsteil Alkylarylpolyglykolether Zur Herstellung einer zweckmäßigen Wirkstoffzubereitung vermischt man 1 Gewichtsteil Wirkstoff mit der angegebenen Menge Lösungsmittel, gibt die angegebene Menge Emulgator zu und verdünnt das Konzentrat mit Wasser auf die gewünschte Konzentration.
(§5) Mit der Wirkstoffzubereitung spritzt man Testpflanzen, welche eine Höhe von 5 - 15 cm haben so, daß die jeweils gewünschten Wirkstoffmengen pro Flächeneinheit ausgebracht werden. Die Konzentration der Spritzbrühe wird so gewählt, daß in 2000 1 Wasser/ha die jeweils gewünschten Wirkstoffmengen ausgebracht werden. Nach drei Wochen wird der Schädigungsgrad der Pflanzen bonitiert.

The subject of experiment [7] is Senf. Description: Post-emergence test. To be noted: 1 kg/ha, rated after three weeks.
From the text: as §4, §5

The test system of experiment [8] is Weizen. Description: Post-emergence test. To be noted: 1 kg/ha, rated after three weeks.
From the text: as §4, §5

The test system of experiment [9] is Hafer. Description: Post-emergence test. Particulars: 1 kg/ha, rated after three weeks.
From the text: as §4, §5

For experiment [10], the system named is Baumwolle. Description: Post-emergence test. Particulars: 1 kg/ha, rated after three weeks.
From the text: as §4, §5

Experiment [11] deals with Bohnen. Description: Post-emergence test. Particulars: 1 kg/ha, rated after three weeks.
From the text: as §4, §5

In experiment [12] the test system is Mais. Description: Post-emergence test. To be noted: 1 kg/ha, rated after three weeks.
From the text: as §4, §5

The subject of experiment [13] is Rüben. Description: Pre-emergence test. Particulars: 2 kg/ha, rated after three weeks.
From the text: as §1, §2, §3

Regarding `O=c1[nH]c(C(F)(Cl)Cl)c(Cl)c(=O)[nH]1` [Produkt aus Beispiel 16], the “Wirkung (Schädigungsgrad der Pflanzen)” value in [1] is “praktisch nicht”; in experiment [2] it was “praktisch nicht”; in [3], “zum größeren Teil vernichtet”; in experiment [4], “praktisch nicht”; in [5], “praktisch nicht”.
With `O=c1[nH]c(C(F)(F)F)c(F)c(=O)[nH]1` [Produkt aus Beispiel 5 und 14, 5-Fluor-6-trifluormethyl-2,4-(lH,3H)-pyrimidindion], the “Wirkung (Schädigungsgrad der Pflanzen)” value is recorded as “vollständig oder nahezu vollständig vernichtet” in experiment [6]; “vollständig oder nahezu vollständig vernichtet” in experiment [7]; “praktisch nicht” in experiment [8]; “zum größeren Teil ver-nichtet” in experiment [2]; “zum größeren Teil ver-nichtet” in experiment [3]; “fast nicht” in experiment [4]. The “Wirkung (Schädigungsgrad der Pflanzen)” value in experiment [5] is given as “fast nicht”.
Regarding `O=c1[nH]c(C(F)(F)F)c(Cl)c(=O)[nH]1` [Produkt aus Beispiel 13, 5-Chlor-6-trifluor-2,4-(lH,3H)-pyrimidindion], the “Wirkung (Schädigungsgrad der Pflanzen)” value in experiment [6] is “praktisch nicht”; in [9], “praktisch nicht”; in experiment [10], “voll-ständig oder nahezu vollständig vernichtet”; in experiment [7], “voll-ständig oder nahezu vollständig vernichtet”; in experiment [11], “voll-ständig oder nahezu vollständig vernichtet”; in [12] it was “voll-ständig oder nahezu vollständig vernichtet”. Further, the “Wirkung (Schädigungsgrad der Pflanzen)” value in [8] is “praktisch nicht”.
Regarding `O=c1[nH]c(C(F)(F)Cl)c(Cl)c(=O)[nH]1` [Produkt aus Beispiel 15], the “Wirkung (Schädigungsgrad der Pflanzen)” value is recorded as “praktisch nicht” in experiment [9]; “vollständig vernichtet” in experiment [7]; “praktisch nicht” in [12]; “praktisch nicht” in [8]; “nahezu vollständig ver-nichtet” in experiment [13]; “praktisch nicht” in [2]. In addition, the entries for the “Wirkung (Schädigungsgrad der Pflanzen)” value in experiment [3], in experiment [4] and in [5] were “nahezu vollständig ver-nichtet”, “praktisch nicht” and “praktisch nicht”, respectively.
